Key:
[1] = Pharmacokinetic assay in Balb/c mice (plasma and brain tissue); format: in vivo; settings: p.o. 5 mg/kg
Protocol: (III). Pharmacokinetic Assay in Balb/c Mice
Balb/c mice were used as test animals. The pharmacokinetic behavior in mouse body (plasma and brain tissue) of the compounds of Examples of the present invention was studied at an oral administration dose of 5 mg/kg.
Male Balb/c mice (12 mice per group), purchased from Shanghai Jiesijie Laboratory Animal Co., LTD, with Certificate No.: SCXK (Shanghai) 2013-0006 N0.311620400001794.
The test compound was dissolved in 0.5% CMC-Na (1% Tween80) by sonication to formulate a clear solution or homogeneous suspension.
After an overnight fast, male Balb/c mice (12 mice per group) were administered p.o. with the test compound at an administration dose of 5 mg/kg and an administration volume of 10 mL/kg.
0.2 mL of blood was taken from the heart of the mouse before administration and at 1, 2, 4, 8 and 24 hours after administration, and the mice were sacrificed with CO2. The samples were stored in EDTA-K2 tubes, and centrifuged for 6 minutes at 4° C., 6000 rpm to separate the plasma. The plasma samples were stored at −80° C. Whole brain tissue was taken out, weighed, placed in a 2 mL centrifuge tube, and stored at −80° C.
1) 160 μL of acetonitrile was added to 40 μL of the plasma sample for precipitation, and then the mixture was centrifuged for 5 to 20 minutes at 3500×g.
2) 90 μL of acetonitrile containing internal standard (100 ng/mL) was added to 30 μL of the plasma and brain homogenate sample for precipitation, and then the mixture was centrifuged for 8 minutes at 13000 rpm.
3) 70 μL of water was added to 70 μL of the treated supernatant and mixed by vortex for 10 minutes. 20 μL of the supernatant was taken to analyze the concentration of the test compound by LC/MS/MS. LC/MS/MS analytical instrument: AB Sciex API 4000 Qtrap.
• Liquid chromatography condition: Shimadzu LC-20AD pump • Chromatographic column: Agilent ZORBAX XDB-C18 (50×2.1 mm, […]); Mobile phase: Eluent A was 0.1% formic acid in water, and Eluent B was acetonitrile • Flow rate: 0.4 mL/min • Elution time: 0-4.0 minutes, the eluent is as follows:
The main parameters of pharmacokinetics were calculated by WinNonlin 6.1.

[2] = Stability study of salt (5 days and 10 days, HPLC related substances); format: physicochemical
Protocol: 2.1.3 Stability Study of Salt
Hydrochloride and p-toluenesulfonate of N-(trans-3-(2-(4-(2,3-dichlorophenyl)piperazin-1-yl)ethyl)cyclobutyl)oxazole-2-carboxamide were weighed about 1 mg, respectively, and then placed under light (5000 lux), high temperature (60° C.), high humidity (92.50 RH), high temperature and high humidity (50° C. and 75% RH) for 5 days and 10 days, then a diluent DMSO was added to prepare a solution with salt concentration of about 1 mg/mL.
The chromatographic peak area normalization method was used to calculate the changes of related substances.

[3] = Solid stability experiment of crystal form of salt; format: physicochemical; settings: for Maximum single impurity increase % / Total impurity increase %: listed as Crystal form B of p-toluenesulfonate
Protocol: 4. Solid Stability Experiment
The physicochemical stability of crystal form of salt of compound N-(trans-3-(2-(4-(2,3-dichlorophenyl)piperazin-1-yl)ethyl)cyclobutyl)oxazole-2-carboxamide under the conditions of light 50001×, high temperature 60° C., high humidity 92.5% RH and high temperature and high humidity 50° C. 75% RH was investigated, which provided a basis for crystal form screening and compound crystal form storage.
About 1 mg of different crystal forms of salt were taken and placed under the conditions of light 50001×, high temperature 60° C., high humidity 92.5% RH, high temperature and high humidity 50° C. 75% RH for 5 days and 10 days. The salt content was determined by HPLC and external standard method, and the change of relevant substances was calculated by chromatographic peak area normalization method.

[4] = GWGS-5 d (high temperature and high humidity)
[5] = GWGS-10 d (high temperature and high humidity)

O=C(N[C@H]1C[C@H](CCN2CCN(c3cccc(Cl)c3Cl)CC2)C1)c1cccc2ncccc12 [Example 19A, N-(trans-3-(2-(4-(2,3-dichlorophenyl)piperazin-1-yl)ethyl)cyclobutyl)quinoline-5-carboxamide]
Peak time tmax ([1]; Brain): 1 h
Peak time tmax ([1]; Plasma): 0.5 h

O=C(N[C@H]1C[C@H](CCN2CCN(c3cccc(Cl)c3Cl)CC2)C1)c1ncco1 [p-toluenesulfonate, N-(trans-3-(2-(4-(2,3-dichlorophenyl)piperazin-1-yl)ethyl)cyclobutyl)oxazole-2-carboxamide]
RRT 0.190 Area % ([2]; 0 d): 0.317%
RRT 0.210 Area % ([2]; 0 d): 0.073%
RRT 1.000 Area % ([2]; 0 d): 99.217%
RRT 1.050 Area % ([2]; 0 d): 0.149%
RRT 1.190 Area % ([2]; 0 d): 0.178%
RRT 1.540 Area % ([2]; 0 d): 0.067%
total Area % (related substances) ([2]; 0 d): 0.783%
RRT 0.190 Area % ([2]; GS-5 d (high humidity)): 0.213%
RRT 0.210 Area % ([2]; GS-5 d (high humidity)): 0.074%
RRT 1.000 Area % ([2]; GS-5 d (high humidity)): 99.310%
RRT 1.050 Area % ([2]; GS-5 d (high humidity)): 0.145%
RRT 1.190 Area % ([2]; GS-5 d (high humidity)): 0.177%
RRT 1.540 Area % ([2]; GS-5 d (high humidity)): 0.080%
total Area % (related substances) ([2]; GS-5 d (high humidity)): 0.690%
RRT 0.190 Area % ([2]; GS-10 d (high humidity)): 0.233%
RRT 0.210 Area % ([2]; GS-10 d (high humidity)): 0.075%
RRT 1.000 Area % ([2]; GS-10 d (high humidity)): 99.298%
RRT 1.050 Area % ([2]; GS-10 d (high humidity)): 0.143%
RRT 1.190 Area % ([2]; GS-10 d (high humidity)): 0.180%
RRT 1.540 Area % ([2]; GS-10 d (high humidity)): 0.071%
total Area % (related substances) ([2]; GS-10 d (high humidity)): 0.702%
RRT 0.190 Area % ([2]; GW-5 d (high temperature)): 0.163%
RRT 0.210 Area % ([2]; GW-5 d (high temperature)): 0.072%
RRT 1.000 Area % ([2]; GW-5 d (high temperature)): 99.400%
RRT 1.050 Area % ([2]; GW-5 d (high temperature)): 0.121%
RRT 1.190 Area % ([2]; GW-5 d (high temperature)): 0.175%
RRT 1.540 Area % ([2]; GW-5 d (high temperature)): 0.068%
total Area % (related substances) ([2]; GW-5 d (high temperature)): 0.600%
RRT 0.190 Area % ([2]; GW-10 d (high temperature)): 0.224%
RRT 0.210 Area % ([2]; GW-10 d (high temperature)): 0.075%
RRT 1.000 Area % ([2]; GW-10 d (high temperature)): 99.319%
RRT 1.050 Area % ([2]; GW-10 d (high temperature)): 0.131%
RRT 1.190 Area % ([2]; GW-10 d (high temperature)): 0.178%
RRT 1.540 Area % ([2]; GW-10 d (high temperature)): 0.073%
total Area % (related substances) ([2]; GW-10 d (high temperature)): 0.681%
RRT 0.190 Area % [2, 4]: 0.348%
RRT 0.210 Area % [2, 4]: 0.072%
RRT 1.000 Area % [2, 4]: 99.204%
RRT 1.050 Area % [2, 4]: 0.137%
RRT 1.190 Area % [2, 4]: 0.170%
RRT 1.540 Area % [2, 4]: 0.070%
total Area % (related substances) [2, 4]: 0.796%
RRT 0.190 Area % [2, 5]: 0.319%
RRT 0.210 Area % [2, 5]: 0.074%
RRT 1.000 Area % [2, 5]: 99.246%
RRT 1.050 Area % [2, 5]: 0.128%
RRT 1.190 Area % [2, 5]: 0.168%
RRT 1.540 Area % [2, 5]: 0.065%
total Area % (related substances) [2, 5]: 0.754%
RRT 0.190 Area % ([2]; GZ-5 d (light)): 0.266%
RRT 0.210 Area % ([2]; GZ-5 d (light)): 0.072%
RRT 0.890 Area % ([2]; GZ-5 d (light)): 0.130%
RRT 1.000 Area % ([2]; GZ-5 d (light)): 99.184%
RRT 1.050 Area % ([2]; GZ-5 d (light)): 0.101%
RRT 1.190 Area % ([2]; GZ-5 d (light)): 0.171%
RRT 1.540 Area % ([2]; GZ-5 d (light)): 0.075%
total Area % (related substances) ([2]; GZ-5 d (light)): 0.816%
RRT 0.190 Area % ([2]; GZ-10 d (light)): 0.324%
RRT 0.210 Area % ([2]; GZ-10 d (light)): 0.073%
RRT 0.890 Area % ([2]; GZ-10 d (light)): 0.232%
RRT 1.000 Area % ([2]; GZ-10 d (light)): 99.028%
RRT 1.050 Area % ([2]; GZ-10 d (light)): 0.115%
RRT 1.190 Area % ([2]; GZ-10 d (light)): 0.162%
RRT 1.540 Area % ([2]; GZ-10 d (light)): 0.066%
total Area % (related substances) ([2]; GZ-10 d (light)): 0.972%
changes in impurities ([2]; high temperature, high humidity, and high temperature and high humidity, 5 and 10 days): no significant changes in impurities

O=C(NC1CC(CCN2CCN(c3cccc(Cl)c3Cl)CC2)C1)c1nccs1 (stereo not drawn) [Example 7, N-(3-(2-(4-(2,3-Dichlorophenyl)piperazin-1-yl)ethyl)cyclobutyl)thiazole-2-carboxamide]
Peak time tmax ([1]; Brain): 1 h
Peak time tmax ([1]; Plasma): 0.5 h

O=C(N[C@H]1C[C@H](CCN2CCN(c3cccc(Cl)c3Cl)CC2)C1)c1nccs1 [Example 7A, N-(Trans-3-(2-(4-(2,3-dichlorophenyl)piperazin-1-yl)ethyl)cyclobutyl)thiazole-2-carboxamide]
Peak time tmax ([1]; Brain): 1 h
Peak time tmax ([1]; Plasma): 1 h

O=C(N[C@H]1C[C@H](CCN2CCN(c3cccc(Cl)c3Cl)CC2)C1)C1(O)CC1 [Example 6A, N-(Trans-3-(2-(4-(2,3-dichlorophenyl)piperazin-1-yl)ethyl)cyclobutyl)-1-hydroxycyclopropane-1-carboxamide]
Peak time tmax ([1]; Brain): 1 h
Peak time tmax ([1]; Plasma): 0.5 h

CCN(C)C(=O)NC1CC(CCN2CCN(c3cccc4sccc34)CC2)C1 (stereo not drawn) [Example 24, 3-(3-(2-(4-(Benzo[b]thiophen-4-yl)piperazin-1-yl)ethyl)cyclobutyl)-1-ethyl-1-methylurea]
Peak time tmax ([1]; Brain): 1 h
Peak time tmax ([1]; Plasma): 0.5 h

O=C(NC1CC(CCN2CCN(c3cccc(Cl)c3Cl)CC2)C1)c1ncco1 (stereo not drawn) [Example 12, N-(3-(2-(4-(2,3-Dichlorophenyl)piperazin-1-yl)ethyl)cyclobutyl)oxazole-2-carboxamide]
Peak time tmax ([1]; Brain): 1 h
Peak time tmax ([1]; Plasma): 0.5 h

O=C(NC1CC(CCN2CCN(c3cccc(Cl)c3Cl)CC2)C1)C1(O)CC1 (stereo not drawn) [Example 6, N-(3-(2-(4-(2,3-Dichlorophenyl)piperazin-1-yl)ethyl)cyclobutyl)-1-hydroxycyclopropane-1-carboxamide]
Peak time tmax ([1]; Brain): 1 h
Peak time tmax ([1]; Plasma): 0.5 h

O=C(N[C@H]1C[C@H](CCN2CCN(c3cccc(Cl)c3Cl)CC2)C1)c1ncco1 [Example 12A, N-(Trans-3-(2-(4-(2,3-dichlorophenyl)piperazin-1-yl)ethyl)cyclobutyl)oxazole-2-carboxamide]
Peak time tmax ([1]; Brain): 1 h
Peak time tmax ([1]; Plasma): 0.5 h

O=C(N[C@H]1C[C@H](CCN2CCN(c3cccc(Cl)c3Cl)CC2)C1)c1ncco1 [crystal form B of p-toluenesulfonate, N-(trans-3-(2-(4-(2,3-dichlorophenyl)piperazin-1-yl)ethyl)cyclobutyl)oxazole-2-carboxamide]
Maximum single impurity increase % ([3]; High humidity, 5 Days): <0.02%
Total impurity increase % ([3]; High humidity, 5 Days): <0.02%
Total impurity increase % ([3]; High temperature, 10 Days): <0.02%
Maximum single impurity increase % ([3]; Light, 5 Days): 0.13%
Total impurity increase % ([3]; Light, 5 Days): 0.03%
Maximum single impurity increase % ([3]; Light, 10 Days): 0.13%
Total impurity increase % ([3]; Light, 10 Days): 0.19%
single impurity ([3]; light conditions): increases significantly
crystal form stability ([3]; other conditions than light): stable

O=C(NC1CC(CCN2CCCN(c3cccc(Cl)c3Cl)CC2)C1)c1ccco1 (stereo not drawn) [Example 25, N-(3-(2-(4-(2,3-Dichlorophenyl)-1,4-diazepan-1-yl)ethyl)cyclobutyl)furan-2-carboxamide]
Peak time tmax ([1]; Brain): 1 h
Peak time tmax ([1]; Plasma): 1 h
